Data taken from ChEMBL document CHEMBL5604063, “ASAP - DENV-2 NS2B-NS3 protease fluorescence dose response” (2024).
“And” between values parts separate entries of the source, which are not always exact repeats. Identical values can stand only once.

Key:
Genome polyprotein [1] = molecular target: T1, Genome polyprotein (dengue virus type 2, UniProt P29990); type: functional, Thailand/16681/1984
Genome polyprotein [2] = molecular target: T1, Genome polyprotein; type: functional, Thailand/16681/1984; remark: listed apart in the source

T1 sequence (P29990 1346-1475 limits assumed): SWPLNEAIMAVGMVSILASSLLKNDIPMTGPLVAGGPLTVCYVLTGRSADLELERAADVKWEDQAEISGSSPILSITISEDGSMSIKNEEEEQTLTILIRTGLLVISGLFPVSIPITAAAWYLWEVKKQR
T1 sequence (P29990 1476-2093 limits assumed): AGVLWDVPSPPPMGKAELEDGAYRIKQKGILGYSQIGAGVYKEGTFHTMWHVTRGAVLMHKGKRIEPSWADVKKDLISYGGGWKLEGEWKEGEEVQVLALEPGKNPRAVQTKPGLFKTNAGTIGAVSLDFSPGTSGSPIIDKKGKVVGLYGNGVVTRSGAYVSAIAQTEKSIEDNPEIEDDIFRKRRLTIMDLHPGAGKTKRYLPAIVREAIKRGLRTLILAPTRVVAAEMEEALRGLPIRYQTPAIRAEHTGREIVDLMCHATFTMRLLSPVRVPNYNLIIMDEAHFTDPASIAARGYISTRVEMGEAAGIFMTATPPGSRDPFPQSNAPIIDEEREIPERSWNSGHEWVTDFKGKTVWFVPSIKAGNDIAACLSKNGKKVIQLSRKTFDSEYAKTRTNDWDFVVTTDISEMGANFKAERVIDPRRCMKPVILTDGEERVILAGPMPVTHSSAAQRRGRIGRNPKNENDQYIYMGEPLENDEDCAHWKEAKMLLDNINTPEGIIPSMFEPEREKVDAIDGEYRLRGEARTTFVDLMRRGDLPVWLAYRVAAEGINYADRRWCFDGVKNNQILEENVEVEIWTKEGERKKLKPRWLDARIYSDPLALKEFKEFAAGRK

Row | Structure (SMILES) | IC50 (Genome polyprotein [1]) | IC50 (Genome polyprotein [2])
1 | NCc1cccc(CS(=O)(=O)c2cc(Cl)cc(NC(=O)OCc3ccccc3)c2)c1 | > 100 µM | > 99.5 µM
2 | CCc1cc(C(=O)Nc2cccc(CN)c2)sc1C | > 100 µM | > 99.5 µM
3 | C[C@H]1CN(C)C[C@@H](C(=O)Nc2cccc(CN)c2)O1 | > 100 µM | > 99.5 µM
4 | COC[C@H](NC(=O)c1cc(Cl)cc(NC(=O)OCc2ccccc2)c1)c1nnn[nH]1 | > 100 µM | > 99.5 µM
5 | N[C@H]1CCc2cc(NC(=O)c3cc(Cl)cc(NC(=O)OCc4ccccc4)c3)ccc21 | > 100 µM | 44.7 µM
6 | O=C(Nc1cc2c(c(C3=CCOCC3)c1)CNC2)c1cc(F)cc2[nH]ncc12 | 27.2 µM and 45.2 µM | 29.7 µM and 19.8 µM
7 | CC(C)(C)NC(=O)[C@H](Nc1ccc2c(c1)CNC2)c1cc(Cl)cc2[nH]ncc12 | > 100 µM | > 99.5 µM
8 | CC(C)n1ncc2c(C(=O)Nc3ccc4c(c3)CNC4)cc(Cl)cc21 | > 100 µM | > 99.5 µM
9 | NC1(c2cccc(NS(=O)(=O)c3ccc(Oc4ccccc4Cl)cc3)c2)CCC1 | > 100 µM | > 99.5 µM
10 | CCn1c(=O)c(N2CC[C@H](CO)C2)nc2ccc(C(=O)NS(C)(=O)=O)cc21 | > 100 µM | > 99.5 µM
11 | FC(F)(F)Oc1cc(Cl)cc2c(CN3CCC(c4cscn4)CC3)c[nH]c12 | > 100 µM | > 99.5 µM
12 | Clc1cc(CCc2cccc(-c3nn[nH]n3)c2)c2cn[nH]c2c1 | 99.1 µM | > 99.5 µM
13 | Clc1ccc2[nH]cc(Cc3ccc(-c4nn[nH]n4)cc3)c2c1 | 16.4 µM | 58.7 µM
14 | COC(=O)c1cc(CN)cc([C@@H]2C[C@H]2c2cc(Cl)cc(NC(=O)OCc3ccccc3)c2)c1 | > 100 µM | > 99.5 µM
15 | O=C(Nc1cc(Cl)cc(C(=O)Nc2ccc3c(c2)COC3)c1)OCc1ccccc1 | > 100 µM | > 99.5 µM
16 | O=C(O)c1ccc2nc(Cc3c[nH]c4ccc(Cl)cc34)cn2c1 | > 100 µM | > 99.5 µM
17 | C[C@@H](N)c1cccc(NC(=O)[C@H]2[C@H]3CCCCC[C@H]3[C@H]2NC(=O)OCc2ccccc2)c1 | 29 µM | 13.5 µM and 13.8 µM
18 | COCCCNC(=O)[C@H](Nc1ccc2c(c1)CNC2)c1cc(Cl)cc(C2CC2)c1 | > 100 µM | > 99.5 µM
19 | Cn1nc(CNc2ccc3c(c2)CNC3)cc1C1CC1 | > 100 µM | > 99.5 µM
20 | N[C@H](CO)c1cccc(NC(=O)c2cc(Cl)cc(NC(=O)OCc3ccccc3)c2)c1 | > 100 µM | > 99.5 µM
21 | CNC(=O)[C@H](Nc1ccccn1)c1cc(Cl)cc(CN)c1 | > 100 µM | > 99.5 µM

Row | Structure (SMILES) | IC50 (Genome polyprotein [1]) | IC50 (Genome polyprotein [2])
22 | COCCO[C@]1(C)C(=O)Nc2cc(F)cc(C(=O)Nc3ccc4c(c3)CNC4)c21 | > 100 µM | > 99.5 µM
23 | O=C(O)CCc1cccc(NC(=O)c2cc(Cl)cc(NC(=O)OCc3ccccc3)c2)c1 | 16.4 µM and 19.7 µM | 48.4 µM
24 | Cc1c(C(=O)Nc2cc(CCCN)ccc2F)cc(C2CC2)n1C | > 100 µM | > 99.5 µM
25 | O=C(Nc1ccc2c(c1)CNC2)c1cncc2[nH]ncc12 | > 100 µM | > 99.5 µM
26 | O=C(Nc1cc(Cl)cc(C(=O)Nc2ccc3c(c2)[C@H]2CC[C@H]3N2)c1)OCc1ccccc1 | > 100 µM | 76.4 µM
27 | O=C(NCC(F)F)[C@H](Nc1ccc2c(c1)CNC2)c1cc(Cl)cc(Cl)c1Cl | > 100 µM | > 99.5 µM
28 | O=S(=O)(Nc1ccc2c(c1)CNC2)c1cccc2[nH]ncc12 | > 100 µM | > 99.5 µM
29 | CC(C)NC(=O)[C@H](Nc1ccc2c(c1)CN(CC(F)F)C2)c1cc(Cl)cc2[nH]ncc12 | > 100 µM | > 99.5 µM
30 | Nc1ccc(NC(=O)c2cc(Cl)cc3[nH]ncc23)cn1 | > 100 µM | > 99.5 µM
31 | O=C(Nc1ccc2c(c1)CNC2)c1ccc2c(c1)CCC2 | > 100 µM | > 99.5 µM
32 | O=C1OCc2ccc(NC(=O)c3cccc4c3CNC4)cc21 | > 100 µM | > 99.5 µM
33 | Cc1c(C(=O)Nc2ccc([C@@H](C)N)cc2)cc(C2CC2)n1C | > 100 µM | > 99.5 µM
34 | CN1Cc2ccc(NC(=O)c3cc(Cl)cc4[nH]ncc34)cc2C1 | > 100 µM | > 99.5 µM
35 | NCCCc1ccc(F)c(NC(=O)c2cc(Cl)cc(NC(=O)OCc3ccccc3)c2)c1 | 91.1 µM | 27.8 µM
36 | NC1(c2cccc(NC(=O)c3cc(Cl)cc(NC(=O)OCc4ccccc4)c3)c2)CCOCC1 | > 100 µM | > 99.5 µM
37 | O=C(Nc1ccc2c(c1)CNC2)c1ccnc2[nH]ccc12 | > 100 µM | > 99.5 µM
38 | CC(=O)Nc1cc(Br)cc(C(=O)Nc2ccc3c(c2)CNC3)c1 | > 100 µM | > 99.5 µM
39 | O=C(Nc1cc(Cl)cc(C(=O)Nc2cccc([C@H]3CCCN3)c2)c1)OCc1ccccc1 | > 100 µM | 95.3 µM
40 | N#Cc1cc2c(cc1NC(=O)c1cc(F)cc3[nH]ncc13)CNC2 | 16.3 µM and 32 µM | 32.5 µM and 25.1 µM
41 | O=C(Nc1ccc2c(c1)CNC2)c1cncc(-c2ccccc2)c1 | > 100 µM | > 99.5 µM
42 | CC[C@H](Cc1nnn[nH]1)c1ccc(NC(=O)[C@H]2[C@H]3CCCCC[C@H]3[C@H]2NC(=O)OCc2ccccc2)cc1 | 13 µM and 16.4 µM | 22.9 µM

Row | Structure (SMILES) | IC50 (Genome polyprotein [1]) | IC50 (Genome polyprotein [2])
43 | O=C(Nc1ccc2c(c1)CNC2)c1cc(F)cc2nn(-c3ccccn3)nc12 | 4.11 µM and 3.88 µM | 4.99 µM and 4.27 µM
44 | Cn1nc(C2CC2)cc1C(=O)Nc1cc(CCCN)ccn1 | > 100 µM | > 99.5 µM
45 | O=S(=O)(Nc1cccc(-c2nnn[nH]2)c1)c1cc(F)cc(Cl)c1 | > 100 µM | > 99.5 µM
46 | O=C(Nc1ccc2c(c1)CNC2)c1cc(F)cc(-c2ccnc3c2CCO3)c1 | > 100 µM | 83.8 µM
47 | Cc1c(C(=O)Nc2ccc3c(c2)CNC3)cc(C2CC2)n1C | > 100 µM | > 99.5 µM
48 | CC(C)Oc1ccc(Cl)cc1[C@H](Nc1ccc2c(c1)CNC2)C(=O)NCC(F)F | > 100 µM | > 99.5 µM
49 | N#Cc1cc(Cl)cc(C(=O)Nc2cccc(-n3nn[nH]c3=O)c2)c1 | > 100 µM | > 99.5 µM
50 | O=C(Nc1ccc2c(c1)CN[C@H]2CCO)c1cc(F)cc2[nH]ncc12 | 23.9 µM and 29.9 µM | 50.8 µM
51 | COC(=O)c1cc(NC(=O)OCc2ccccc2)cc(C(=O)Nc2cccc(CN)c2)c1 | > 100 µM | > 99.5 µM
52 | CCc1cnccc1-c1nc2c(C(=O)Nc3ccc4c(c3)CNC4)cc(Cl)cc2[nH]1 | > 100 µM | > 99.5 µM
53 | C=CC[C@H](Nc1ccc(-c2nn[nH]n2)cc1)c1cc(Cl)cc(NC(=O)OCc2ccccc2)c1 | 5.41 µM and 5.49 µM | 6.6 µM
54 | NCc1cc(NC(=O)c2cc(Cl)cc(NC(=O)OCc3ccccc3)c2)cc(C2CC2)c1 | > 100 µM | 72 µM
55 | NCc1cccc(NC(=O)c2cc(Cl)cc3[nH]ncc23)c1 | > 100 µM | > 99.5 µM
56 | Cc1cc(C(=O)Nc2cccc(CN)c2)c2sc(N)nc2n1 | > 100 µM | > 99.5 µM
57 | O=C(Nc1ccc2c(c1)CNC2)N1CCC[C@H]1c1nc2ncccc2[nH]1 | > 100 µM | > 99.5 µM
58 | O=C(Nc1ccc2c(c1)CNC2)c1ncnc2[nH]ccc12 | > 100 µM | > 99.5 µM
59 | CC1(NC(=O)c2cccc3c2CC(=O)N3)CCOCC1 | > 100 µM | > 99.5 µM
60 | NCc1cccc(NC(=O)[C@H]2CCc3nnc(C4CC4)n3C2)c1 | > 100 µM | > 99.5 µM
61 | NCc1cccc(NC(=O)c2cc(Cl)cc(-n3cccc3)c2)c1 | > 100 µM | > 99.5 µM
62 | O=C(Nc1ccc2c(c1)CNC2)c1cccc2c(C3CNC3)n[nH]c12 | 22.7 µM and 26.4 µM | 19 µM and 17.2 µM
63 | Cc1ccc2cc(Cl)cc(C(=O)Nc3ccc4c(c3)CNC4)c2n1 | 53.2 µM and > 100 µM | 85.7 µM

Row | Structure (SMILES) | IC50 (Genome polyprotein [1]) | IC50 (Genome polyprotein [2])
64 | COc1cn(-c2cccc(C(F)(F)F)c2)nc1C(=O)Nc1cccc(CN)c1 | > 100 µM | > 99.5 µM
65 | CC(C)(C)NC(=O)[C@H](Nc1cccc(-c2nn[nH]n2)c1)c1cc(Cl)cc(NC(=O)OCc2ccccc2)c1 | 7.15 µM and 7.59 µM | 11.3 µM
66 | O=C(Nc1cc(Cl)cc(C(=O)Nc2cc(-c3nnn[nH]3)ccc2F)c1)OCc1ccccc1 | 11 µM and 7.48 µM | 15.6 µM
67 | Oc1cc(N2CCN(Cc3c[nH]c4ccccc34)CC2)ccn1 | > 100 µM | > 99.5 µM
68 | O=C(Nc1ccc2c(c1)CNC2)c1cc(F)c2[nH]ccc2c1 | > 100 µM | > 99.5 µM
69 | Cc1c(C(=O)Nc2cc(C#N)cn(C)c2=O)cc(C2CC2)n1C | > 100 µM | > 99.5 µM
70 | O=C(Nc1cc(Cl)cc(C(=O)Nc2ccc(N3CCNCC3)c(F)c2)c1)OCc1ccccc1 | > 100 µM | 74.1 µM
71 | Cn1c(=O)[nH]c2c(C(=O)Nc3ccc4c(c3)CNC4)cc(Br)cc21 | 42.8 µM and 34.9 µM | > 99.5 µM
72 | CS(=O)(=O)N1CC[C@]2(C1)C(=O)Nc1cccc(C(=O)Nc3ccc4c(c3)CNC4)c12 | > 100 µM | > 99.5 µM
73 | CC(C)(C)c1cc(Br)cc(C(=O)Nc2ccc3c(c2)CNC3)c1 | > 100 µM | > 99.5 µM
74 | CN(C)C(=O)CCCc1nc2c(C(=O)Nc3ccc4c(c3)CNC4)cc(Cl)cc2[nH]1 | > 100 µM | > 99.5 µM
75 | N#C[C@H](Nc1cncc(-c2nn[nH]n2)c1)c1cc(Cl)cc(NC(=O)OCc2ccccc2)c1 | 11 µM and 10.8 µM | 18.7 µM
76 | COCCNC(=O)[C@H](Nc1cccc([C@H]2CCOC2)c1)c1cc(F)cc2[nH]ccc12 | > 100 µM | > 99.5 µM
77 | O=C(Nc1ccc2c(c1)CNC2)c1cc(Cl)cc2[nH]c(-c3cn[nH]c3)cc12 | > 100 µM | > 99.5 µM
78 | Cn1cc(C(F)(F)F)nc1C(=O)Nc1cc(-c2cccnc2)ccn1 | > 100 µM | > 99.5 µM
79 | CNc1c(-c2cc(Cl)cc(C3CC3)c2)nc2cc(C(=O)O)ccn12 | > 100 µM | > 99.5 µM
80 | N#Cc1cccc(-c2nc3c(C(=O)Nc4ccccc4)cc(Cl)cc3[nH]2)c1 | > 100 µM | –
81 | CC(C)c1nc2c(C(=O)Nc3ccc4c(c3)CNC4)cc(Br)cc2[nH]1 | > 100 µM | –
82 | COc1ccccc1-c1nc2c(C(=O)Nc3ccc4c(c3)CNC4)cc(F)cc2[nH]1 | > 100 µM | –
83 | O=C(NCc1cccnc1)[C@H](Nc1ccc2c(c1)CNC2)c1cc(Cl)cc2[nH]ncc12 | > 100 µM | –
84 | N#Cc1cccc(-c2nc3c(C(=O)NCc4cccnc4)cc(Cl)cc3[nH]2)c1 | > 100 µM | –
